According to article PMC12703733, “Probing Guanidino Pendant or Bridged Groups in Cyclic Antimicrobial Peptides Derived from Temporin L: A Strategy to Improve Efficacy against Gram-Negative Bacteria” (Journal of Medicinal Chemistry, 2025):
Where two headings read alike, the source gives them in different places. Bridge positions count the residues as written; N and C are the ends. Square brackets hold non-standard residues; d marks the D form. Peptide text beside a SMILES is read from it.

Assays:
[1] = test system: all bacteria tested; experiment: MIC panel, geometric mean over all strains; type: cell-based; conditions: geometric mean of the MICs against all bacteria tested
Experimental: (§1) The antimicrobial efficacy of the TLcyc analogues was assessed against a representative panel of Gram-positive and Gram-negative bacterial strains, by determining their minimal inhibitory concentrations (MIC), as summarized in Table . To provide an integrated measure of antimicrobial potency, we calculated the geometric mean (GM) of MIC values across all strains (GMall), as well as separately for Gram-positive (GMGram+) and Gram-negative (GMGram–) bacteria.
(§2) Bacterial strains used in this study were the Gram-positive S. aureus ATCC 25923, S. epidermidis ATCC 12228, B. megaterium BM11, S. agalactiae ATCC 27591, E. faecalis ATCC 29212 and the Gram-negative E. coli ATCC 25922, P. aeruginosa ATCC 27853, A. baumannii ATCC 19606, E. coli D21 and P. aeruginosa PAO1. […] Bacterial cells in the mid log phase were diluted in Muller Hinton (MH) at a concentration of 2 × 10^6 cell/mL. Aliquots of 50 μL of this bacterial suspension were added to 50 μL of MH containing serial 2-fold dilutions of the peptides (from 100 to 0.19 μM) in the wells a 96-well plate. Ciprofloxacin was used as antibiotic control. The plate was then incubated at 37 °C. MICs were obtained from three identical readings of four independent experiments.

[2] = test system: Gram-positive bacteria tested; experiment: MIC panel, Gram-positive strains (geometric mean, range); type: cell-based; conditions: geometric mean of the MICs against Gram-positive bacteria tested
Experimental: as §1, §2

[3] = test system: Gram-negative bacteria tested; experiment: MIC panel, Gram-negative strains (geometric mean); type: cell-based; conditions: geometric mean of the MICs against Gram-negative bacteria tested
Experimental: as §1, §2

[4] = type: cell-based, human
Outline: (§3)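 Cells were plated at about 4 × 10^4/well in 2% FBS, then exposed to peptide at 100–3.12 μM in serum-free medium for 2 h or 24 h. Viability was measured by MTT reduction (0.5 mg/mL, 4 h, absorbance 570 nm) relative to untreated cells, as the mean ± SEM of three experiments.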

[5] = test system: human keratinocytes (HaCaT cells); type: cell-based
Outline: as §3

[6] = type: cell-based; conditions: Cell viability (%)
Experimental: (§4) For the evaluation of peptides’ cytotoxicity, the human immortalized keratinocytes (HaCaT cells), purchased from AddexBio (San Diego, CA, USA), and BEAS-2B were used. HaCaT cells were cultured in Dulbecco’s modified Eagle’s medium supplemented with 4 mM glutamine (DMEM), 10% heat-inactivated fetal bovine serum (FBS), and 0.1 mg/mL of penicillin and streptomycin, at 37 °C and 5% CO2. BEAS-2B cells were cultured in RPMI, supplemented with 2 mM glutamine (DMEM), 10% heat-inactivated fetal bovine serum (FBS), 1 mM sodium pyruvate, and 0.1 mg/mL of penicillin and streptomycin, at 37 °C and 5% CO2. Cytotoxicity was tested in vitro using a colorimetric assay that relies on the intracellular reduction of the yellow 3-(4,5-dimethylthiazol-2-yl)-2,5-diphenyltetrazolium bromide salt (MTT) by mitochondrial dehydrogenases of metabolically active cells in formazan crystals (purple). About 4 × 10^4 HaCaT and BEAS-2B cells, suspended in DMEM supplemented with 2% FBS, were plated in triplicate wells of a 96-well microtiter plate. The plate was incubated overnight at 37 °C and 5% CO2. Then, the cells were treated with different concentrations of the peptide (from 100 to 3.12 μM) in a fresh serum-free medium for 2 h and for a longer time (24 h). Following peptide treatment, the medium was removed, and MTT (0.5 mg/mL) solution in Hank’s buffer (136 mM NaCl, 4.2 mM Na2HPO4, 4.4 mM KH2PO4, 5.4 mM KCl, 4.1 mM NaHCO3, pH 7.2, supplemented with 20 mM D-glucose) was added to each well of the plate, that was then incubated for 4 h at 37 °C and 5% CO2. The purple formazan crystals were dissolved using acidified 2-propanol and a microplate reader (Infinite M200; Tecan, Salzburg, Austria) was used to measure the absorbance of each well at 570 nm. The percentage of cell viability was calculated compared to the control, which consisted of cells without any peptide treatment (corresponding to 100% viability) and all data represent the mean of three independent experiments ± SEM.

[7] = test system: BEAS-2B cells; type: cell-based
Experimental: as §4

[8] = test system: S. aureus ATCC 25923 biofilm; experiment: Activity against preformed biofilm (MTT); type: cell-based; conditions: concentrations below 25 μM
Experimental: (§5) The antibiofilm activity was evaluated as elsewhere reported. Bacteria grew at 37 °C until they reached an optical density (OD) of 0.8 (λ = 590 nm). The culture was diluted to a cell density of 1 × 10^6 colony-forming units (CFUs)/mL and aliquots of 100 μL of this suspension were dispensed into the wells of a 96-multiwell plate. After biofilm formation (incubation time = 20 h at 37 °C), all the planktonic cells were removed, and the wells were washed twice with PBS (150 μL). After washing, the wells were filled with PBS supplemented with different 2-fold serial dilutions of the tested peptides (from 50 to 1.56 μM). After peptide treatment (incubation time = 2 h at 37 °C) the wells were washed with PBS twice and filled with 150 μL of MTT (0.5 mg/mL) to evaluate biofilm viability after 4 h incubation at 37 °C. The reaction was then stopped by adding SDS (final concentration equal to 5% v/v). A microplate reader (Infinite M200; Tecan, Salzburg, Austria) was used to measure the absorbance of each well at 570 nm and the percentage of biofilm viability was calculated relative to the untreated samples.

[9] = type: cell-based, P. aeruginosa
Experimental: as §5

[10] = test system: P. aeruginosa ATCC 27853; type: cell-based
Experimental: The ability of peptides to alter the bacterial membrane permeability of planktonic cells of S. aureus ATCC 25923 and P. aeruginosa ATCC 27853 was determined by the Sytox Green assay. Approximately 1 × 10^6 cells in 100 μL of PBS were combined with 1 μM Sytox Green in the dark for 5 min. The fluorescence intensity was monitored using a microplate reader (Infinite M200, Tecan), with excitation and emission at λ = 485 and 535 nm, respectively. Peptides were added (time = 0) at three different concentrations (i.e., 3.12, 6.25, and 12.5 μM). Increase in the fluorescence intensity is due to the binding of the dye to intracellular nucleic acids. Controls consisted of cells that were not exposed to the peptides. The values correspond to one representative experiment out of three independent experiments.

Compound: CC[C@H](C)[C@H](NC(=O)[C@H](CCCNC(=N)N)NC(=O)[C@H]1CCC(=O)NCCCC[C@H](NC(=O)[C@H](Cc2ccccc2)NC(=O)[C@H](Cc2c[nH]c3ccccc23)NC(=O)[C@@H]2CCCN2C(=O)[C@@H](NC(=O)[C@@H](N)Cc2ccccc2)C(C)C)C(=O)N[C@@H](CCCCN)C(=O)N[C@@H](Cc2ccccc2)C(=O)N[C@H](CC(C)C)C(=O)N1)C(=O)N[C@@H](CC(C)C)C(N)=O [Peptide 2, FVPWF[KKFle]RIL] (H-FVPWFKKF[dL][dE]RIL-NH2; lactam 6-10)
- geometric mean GMall [1]: 8.81 µM
- geometric mean GMGram+ [2]: 4.72 µM
- geometric mean GMGram– [3]: 16.4 µM
- CC50 ([4]; CC50): > 50 µM
- viability at 3.12 µM ([4]; Cell viability (%)): 102%
- viability at 6.25 µM ([4]; Cell viability (%)): 96%
- viability at 12.5 µM ([4]; Cell viability (%)): 95%
- viability at 25 µM ([4]; Cell viability (%)): 95%
- viability at 50 µM ([4]; Cell viability (%)): 64%
- Cell viability (%) ([5]; 3.12 µM): 101 ± 2%
- Cell viability (%) ([5]; 6.25 µM): 92 ± 2%
- Cell viability (%) ([5]; 12.5 µM): 92 ± 1%
- Cell viability (%) ([5]; 25 µM): 94 ± 1%
- CC50 ([5]; 24 h): 56.4 µM
- viability at 6.25 µM [6]: 107%
- viability at 12.5 µM [6]: 100%
- viability at 25 µM [6]: 91%
- viability at 100 µM [6]: 5%
- Cell viability (%) ([7]; 3.12 µM): 132%
- Cell viability (%) ([7]; 6.25 µM): 119%
- Cell viability (%) ([7]; 12.5 µM): 114%
- Cell viability (%) ([7]; 25 µM): 102%
- Cell viability (%) ([7]; 100 µM): 8%
- antibiofilm activity (in words) [8]: weaker or no activity
- viability [9]: > 70%
- membrane permeabilization, Sytox Green fluorescence (in words) [10]: lower intensity
